Results as given in article PMC7044277 (Nature Communications, 2020).
“And” between values parts separate entries of the source, which are not always exact repeats. Equal entries are not always repeated.

Assays:
[1] = molecular target: DRD2 (D2 long receptor) wild-type (Homo sapiens, UniProt P14416); test: Radioligand competition binding, [3H]-N-methylspiperone, HEK293T membranes; conditions: DRD2; [3H]-methylspiperone (0.8-1.0 nM); read-out: Ki
DRD3 wild-type = DRD3 wild-type (Homo sapiens, UniProt P35462); test: Radioligand competition binding, [3H]-N-methylspiperone
DRD3 wild-type, sequence (P35462 whole entry): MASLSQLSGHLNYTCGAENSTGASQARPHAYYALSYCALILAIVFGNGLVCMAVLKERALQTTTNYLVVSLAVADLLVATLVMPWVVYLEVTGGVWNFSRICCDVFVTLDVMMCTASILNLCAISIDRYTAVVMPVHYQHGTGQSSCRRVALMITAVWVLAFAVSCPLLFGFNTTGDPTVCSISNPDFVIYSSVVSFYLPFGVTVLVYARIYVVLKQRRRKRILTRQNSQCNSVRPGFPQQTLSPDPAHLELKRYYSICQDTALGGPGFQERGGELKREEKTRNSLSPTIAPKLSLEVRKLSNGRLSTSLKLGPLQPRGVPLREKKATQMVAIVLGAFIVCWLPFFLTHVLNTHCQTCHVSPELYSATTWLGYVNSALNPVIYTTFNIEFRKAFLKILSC

[2] = molecular target: T1, DRD4 (D4.4 variant) wild-type (Homo sapiens, UniProt P21917); test: as above; conditions: DRD4; [3H]-methylspiperone (0.8-1.0 nM); read-out: Ki
T1 sequence (P21917 1-419): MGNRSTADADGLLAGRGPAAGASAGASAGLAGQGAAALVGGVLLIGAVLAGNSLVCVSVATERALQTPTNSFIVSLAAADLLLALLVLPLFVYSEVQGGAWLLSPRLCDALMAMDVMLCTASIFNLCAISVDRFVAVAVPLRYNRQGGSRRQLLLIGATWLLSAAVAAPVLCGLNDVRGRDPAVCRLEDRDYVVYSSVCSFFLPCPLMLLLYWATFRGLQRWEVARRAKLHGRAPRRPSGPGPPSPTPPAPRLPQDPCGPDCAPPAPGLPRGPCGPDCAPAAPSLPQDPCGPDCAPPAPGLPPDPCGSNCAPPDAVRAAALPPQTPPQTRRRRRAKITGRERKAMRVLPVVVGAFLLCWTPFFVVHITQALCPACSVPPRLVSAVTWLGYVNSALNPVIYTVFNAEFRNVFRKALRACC

DRD2 (D2 long receptor) [3] = molecular target: T2, DRD2 (D2 long receptor) (Homo sapiens, UniProt P14416); test: Gαi/o-mediated cAMP inhibition (GloSensor split-luciferase cAMP reporter), HEK293T; assay type: cell-based; conditions: DRD2; agonist, Gαi/o-mediated cAMP inhibition; read-out: EC50 ± SEM;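 note: compounds applied 15 min at room temperature, then luciferin plus 400 nM isoproterenol to raise cAMP through endogenous β2-adrenergic receptors, luminescence read 15 min later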
T2 sequence (P14416 whole entry): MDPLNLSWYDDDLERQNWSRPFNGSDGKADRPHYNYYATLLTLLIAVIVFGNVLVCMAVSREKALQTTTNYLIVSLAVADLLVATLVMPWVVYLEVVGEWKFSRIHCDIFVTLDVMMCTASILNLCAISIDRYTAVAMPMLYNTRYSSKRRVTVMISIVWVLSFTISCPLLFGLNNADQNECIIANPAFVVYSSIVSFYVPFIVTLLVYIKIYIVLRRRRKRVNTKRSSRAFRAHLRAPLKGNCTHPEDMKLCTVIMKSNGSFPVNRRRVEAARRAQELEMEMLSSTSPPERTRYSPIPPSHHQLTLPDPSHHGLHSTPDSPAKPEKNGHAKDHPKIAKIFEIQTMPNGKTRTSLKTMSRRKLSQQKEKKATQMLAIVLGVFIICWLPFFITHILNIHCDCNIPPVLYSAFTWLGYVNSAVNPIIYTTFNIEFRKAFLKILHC

DRD4 (D4.4 variant) [4] = molecular target: T3, DRD4 (D4.4 variant) (Homo sapiens, UniProt P21917); test: Gαi/o-mediated cAMP inhibition (GloSensor); assay type: cell-based; conditions: DRD4; agonist, cAMP inhibition; read-out: EC50 ± SEM
T3 sequence (P21917 1-419): T1 sequence (P21917 1-419)

DRD2 (D2 long receptor) [5] = molecular target: T2, DRD2 (D2 long receptor); test: β-arrestin2 recruitment (Tango), HTLA cells; assay type: cell-based; conditions: DRD2
DRD3 = DRD3 (Homo sapiens, UniProt P35462); test: β-arrestin2 recruitment (Tango); assay type: cell-based; conditions: DRD3; Tango; read-out: EC50 ± SEM
DRD3, sequence (P35462 whole entry): as the sequence (P35462 whole entry) above

DRD4 (D4.4 variant) [6] = molecular target: T3, DRD4 (D4.4 variant); test: β-arrestin2 recruitment (Tango); assay type: cell-based; conditions: DRD4; Tango; read-out: EC50 ± SEM
DRD2 F1103.28A = DRD2 F1103.28A (Homo sapiens, UniProt P14416, F110A); assay type: binding; parameters: expressed in transfected cells; host or cells: HEK293T (ATCC CRL-11268); conditions: DRD2 F1103.28A
DRD2 F1103.28A, sequence (P14416 whole entry F110A): as the sequence (P14416 whole entry) above, with F110A counted along it

5HT6 = molecular target: T4, 5HT6 (Homo sapiens, UniProt P50406); test: β-arrestin2 recruitment (Tango); assay type: cell-based; conditions: Fig_S10p, agonist mode
T4 construct: expressed in transfected cells; host or cells: HTLA cells expressing TEV-fused β-arrestin2
T4 sequence (P50406 whole entry, the tested form may be a part): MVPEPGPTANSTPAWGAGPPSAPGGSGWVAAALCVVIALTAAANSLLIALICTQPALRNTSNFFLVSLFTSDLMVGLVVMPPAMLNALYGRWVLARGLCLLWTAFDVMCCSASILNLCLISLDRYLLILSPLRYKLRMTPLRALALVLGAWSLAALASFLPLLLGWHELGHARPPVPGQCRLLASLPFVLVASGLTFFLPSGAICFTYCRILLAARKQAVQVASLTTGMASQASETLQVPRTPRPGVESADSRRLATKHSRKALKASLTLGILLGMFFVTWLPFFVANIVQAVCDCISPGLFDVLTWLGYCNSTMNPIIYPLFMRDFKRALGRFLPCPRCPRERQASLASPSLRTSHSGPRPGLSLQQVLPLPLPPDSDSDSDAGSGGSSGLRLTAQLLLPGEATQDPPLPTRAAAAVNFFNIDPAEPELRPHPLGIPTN

5HT7A = molecular target: T5, 5HT7A (Homo sapiens, UniProt P34969); test: β-arrestin2 recruitment (Tango); assay type: cell-based; conditions: Fig_S10q, agonist mode
T5 construct: expressed in transfected cells; host or cells: HTLA cells expressing TEV-fused β-arrestin2
T5 sequence (P34969 1-445 isoform P34969-2): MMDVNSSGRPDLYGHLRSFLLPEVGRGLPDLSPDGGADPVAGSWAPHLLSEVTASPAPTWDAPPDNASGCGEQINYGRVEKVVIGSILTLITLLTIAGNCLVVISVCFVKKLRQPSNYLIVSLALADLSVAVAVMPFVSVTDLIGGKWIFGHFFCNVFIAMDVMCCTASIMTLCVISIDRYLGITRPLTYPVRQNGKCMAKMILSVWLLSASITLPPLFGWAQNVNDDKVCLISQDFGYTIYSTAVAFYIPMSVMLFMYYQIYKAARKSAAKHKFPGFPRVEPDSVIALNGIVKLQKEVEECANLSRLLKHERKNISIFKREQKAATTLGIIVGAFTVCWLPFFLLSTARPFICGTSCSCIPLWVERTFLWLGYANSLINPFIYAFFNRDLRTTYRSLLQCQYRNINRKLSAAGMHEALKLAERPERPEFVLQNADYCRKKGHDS

DRD2 (D2 long receptor) wild-type, sequence (P14416 whole entry): as the sequence (P14416 whole entry) above

SMILES: CCOc1cccc2cc(C(C)NCc3ccccc3)oc12.Cl (centres unmarked) [O4LE9]
- Ki [1]: > 10 µM
- Ki (DRD3 wild-type; DRD3, [3H]-methylspiperone (0.8-1.0 nM), read-out: Ki): 5.88 µM
- pKi ± SEM (DRD3 wild-type; DRD3 wild-type): 5.23±0.25
- Ki [2]: > 10 µM
- EC50 (DRD2 (D2 long receptor) [3]): > 10 µM
- EC50 (DRD4 (D4.4 variant) [4]): > 10 µM
- Emax relative to quinpirole response (DRD2 (D2 long receptor) [5]; Tango): 19.73%
- EC50 (DRD2 (D2 long receptor) [5]; β-arrestin2 recruitment (Tango), read-out: EC50 ± SEM): 5.37 ± 0.964 µM
- EC50 (DRD3): > 10 µM
- EC50 (DRD4 (D4.4 variant) [6]): > 10 µM
- pKi ± SEM (DRD2 F1103.28A): 5.28±0.02
- Ki (DRD2 F1103.28A; read-out: Ki): 5.25 µM

SMILES: CC[C@@H](CO)NC(=O)[C@@H]1C=C2c3cccc4[nH]cc(c34)C[C@H]2N(C)C1 [methylergonovine]
- β-arrestin2 recruitment response, replicate points of concentration-response curve (5HT6; Log[Drug] -7.52): 58.3654 and 42.8218 and 40.7735 and 42.4938 and 47.6018 and 32.15
- β-arrestin2 recruitment response, replicate points of concentration-response curve (5HT6; Log[Drug] -8): 38.2178 and 17.1349 and 29.2946 and 27.8088 and 40.0294 and 64.9029 and 31.7107 and 61.5077 and 39.0249 and 30.4136
- β-arrestin2 recruitment response, replicate points of concentration-response curve (5HT6; Log[Drug] -8.52): 30.1013 and 10.6993 and 18.1498 and 24.4245 and 28.031 and 15.5168 and 0.8374 and 22.4349 and 11.5027 and 21.7874 and 10.2907 and 27.3285
- β-arrestin2 recruitment response, replicate points of concentration-response curve (5HT6; Log[Drug] -9): 20.3729 and 3.9604 and 2.141 and 7.952 and 0.7859 and 8.081 and -4.077 and -4.555 and -0.4693 and 35.6884 and 0.3477 and 9.366
- β-arrestin2 recruitment response, replicate points of concentration-response curve (5HT6; Log[Drug] -9.52): 14.1022 and -2.488 and 4.171 and 24.8948 and 4.829 and 2.461 and 0.773 and -7.38 and -5.613 and 10.7938 and 2.907 and -1.524
- β-arrestin2 recruitment response, replicate points of concentration-response curve (5HT6; Log[Drug] -10): 15.029 and -5.149 and -2.667 and -0.08663 and 7.1866 and 6.531 and -8.448 and -13.3063 and 14.3186 and 3.129 and -2.7225 and -5.682
- β-arrestin2 recruitment response, replicate points of concentration-response curve (5HT6; Log[Drug] -10.52): 3.317 and 8.465 and -0.4579 and 0.09901 and 5.631 and 26.1232 and -3.267 and -10.7113 and 5.834 and 27.1732 and 9.063 and 0.5697
- β-arrestin2 recruitment response, replicate points of concentration-response curve (5HT6; Log[Drug] -11): 5.777 and -4.208 and -3.1745 and 6.856 and 4.8832 and -1.2628 and -4.113 and -7.095 and -5.0704 and 3.773 and -2.7003 and -4.128
- β-arrestin2 recruitment response, replicate points of concentration-response curve (5HT6; Log[Drug] -11.52): -0.7317 and 4.554 and -0.9344 and -1.6151 and 0.5528 and 0.3631 and 17.5761 and 19.5362 and 55.6731 and -3.662 and -4.713 and -3.3
- β-arrestin2 recruitment response, replicate points of concentration-response curve (5HT7A; Log[Drug] -8.52): 57.2072 and 62.1985 and 0.2034 and 43.345 and 17.0227 and 39.6469 and 24.6535 and -5.393 and 3.158
- β-arrestin2 recruitment response, replicate points of concentration-response curve (5HT7A; Log[Drug] -9): 28.3493 and 32.0982 and 22.9584 and 37.3511 and 39.7632 and 14.7559 and 9.616 and 19.0912 and 1.923
- β-arrestin2 recruitment response, replicate points of concentration-response curve (5HT7A; Log[Drug] -9.52): -6.008 and 0.109 and 1.017 and 1.4676 and 14.0366 and 7.578 and 5.289 and -11.615 and 5.562
- β-arrestin2 recruitment response, replicate points of concentration-response curve (5HT7A; Log[Drug] -10): -3.669 and 16.1145 and 7.694 and 15.3008 and -0.2833 and 45.4083 and 32.224 and 8.8715 and 2.743
- β-arrestin2 recruitment response, replicate points of concentration-response curve (5HT7A; Log[Drug] -10.52): 10.5565 and 33.0718 and 2.739 and 13.5571 and -3.967 and -24.3897 and -1.32 and -17.1773 and 11.1342
- β-arrestin2 recruitment response, replicate points of concentration-response curve (5HT7A; Log[Drug] -11): -4.984 and -18.2941 and -15.3444 and 8.733 and -19.8489 and 29.4754 and -10.9833 and -5.732 and 20.4393
- β-arrestin2 recruitment response, replicate points of concentration-response curve (5HT7A; Log[Drug] -11.52): -6.553 and -20.7643 and -12.3583 and 13.7605 and -14.4653 and -10.5493 and -19.7417 and -12.1995 and -5.987
- β-arrestin2 recruitment response, replicate points of concentration-response curve (5HT7A; Log[Drug] -12): 42.2988 and -7.374 and -17.7056 and -12.5618 and -4.708 and 17.4441 and -2.395 and 25.3135 and 14.3302
